Assay results from patent US9073884B2, “Anti-inflammatory and quorum sensing inhibition compounds and methods of making and using them” (The Regents of the University of California, priority 2010, dated 2015).

What was measured:
vibrio harveyi = vibrio harveyi assay (quorum sensing inhibition); type: cell-based
[1] = system: Escherichia coli JB525 (E. coli MT102 harboring the gfp plasmid pJBA132); test: Escherichia coli JB525 assay (quorum sensing inhibition); type: cell-based

With O=C(/C=C/CCl)O[C@@H]1COC(=O)C1 [Honaucin A] the “inhibition of AI-1 and AI-2 mediated quorum sensing” value (vibrio harveyi) was “good inhibition” and the “inhibition of AI-1 and AI-2 mediated quorum sensing” value [1] was “good inhibition”.
